# Laboratory results as given in the supplement of paper PMC10307832.
# Legend:
# Test in all cases: relative viability (nuclei count vs DMSO), 5 days (fraction); higher = more cells survive
# NCI-H1915 = system: NCI-H1915
# Method in brief: (§1)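 Lung cancer cell lines were seeded in 1536-well plates and dosed by pin tool the next day, with either a single drug or a fixed anchor-drug dose combined with five library-drug doses (not always all listed) spaced in √10 steps. Five days later, one step fixed the cells and stained their nuclei (final 0.05% Triton X-100, 1% formaldehyde, 1 ug/ml Hoechst), and nuclei were counted on 4× images. Relative viability is the nuclei count in treated wells divided by the count in vehicle wells, and each value is the median of duplicate plates.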
# NCI-H1563 = system: NCI-H1563
# Method in brief: as §1
# 201T = system: 201T
# Method in brief: as §1
# LOU-NH91 = system: LOU-NH91
# Method in brief: as §1
# NCI-H838 = system: NCI-H838
# Method in brief: as §1
# HOP-62 = system: HOP-62
# Method in brief: as §1
# NCI-H2126 = system: NCI-H2126
# Method in brief: as §1
# NCI-H1355 = system: NCI-H1355
# Method in brief: as §1
# NCI-H2347 = system: NCI-H2347
# Method in brief: as §1
# SW 1573 = system: SW 1573
# Method in brief: as §1
# NCI-H3122 = system: NCI-H3122
# Method in brief: as §1
# CAL-12T = system: CAL-12T
# Method in brief: as §1
# NCI-H1651 = system: NCI-H1651
# Method in brief: as §1
# NCI-H650 = system: NCI-H650
# Method in brief: as §1
# NCI-H1944 = system: NCI-H1944
# Method in brief: as §1
# NCI-H322M = system: NCI-H322M
# Method in brief: as §1
# HCC-78 = system: HCC-78
# Method in brief: as §1
# LCLC-97TM1 = system: LCLC-97TM1
# Method in brief: as §1
# NCI-H441 = system: NCI-H441
# Method in brief: as §1
# SK-LU-1 = system: SK-LU-1
# Method in brief: as §1
# BEN = system: BEN
# Method in brief: as §1
compound,measurement,setting,value
Cc1csc(=NC2CCCCC2)n1/N=C/c1ccc(O)c(O)c1O [MIM1] + C[C@@H](Oc1cc(-c2cnn(C3CCNCC3)c2)cnc1N)c1c(Cl)ccc(F)c1Cl [Crizotinib] (partner 1 µM),relative viability,NCI-H1915; first compound 0.2 µM,0.887
same,relative viability,NCI-H1915; first compound 0.6325 µM,0.875
same,relative viability,NCI-H1915; first compound 2 µM,0.792
same,relative viability,NCI-H1915; first compound 6.325 µM,0.648
same,relative viability,NCI-H1915; first compound 20 µM,0.219
same,relative viability,NCI-H1563; first compound 0.2 µM,1
same,relative viability,NCI-H1563; first compound 0.6325 µM,0.891
same,relative viability,NCI-H1563; first compound 2 µM,0.749
same,relative viability,NCI-H1563; first compound 6.325 µM,0.784
same,relative viability,NCI-H1563; first compound 20 µM,0.577
same,relative viability,201T; first compound 0.2 µM,1.01
same,relative viability,201T; first compound 0.6325 µM,1.04
same,relative viability,201T; first compound 2 µM,1.04
same,relative viability,201T; first compound 6.325 µM,0.81
same,relative viability,201T; first compound 20 µM,0.823
same,relative viability,LOU-NH91; first compound 0.2 µM,0.748
same,relative viability,LOU-NH91; first compound 0.6325 µM,0.728
same,relative viability,LOU-NH91; first compound 2 µM,0.683
same,relative viability,LOU-NH91; first compound 6.325 µM,0.675
same,relative viability,LOU-NH91; first compound 20 µM,0.392
same,relative viability,NCI-H838; first compound 0.2 µM,0.818
same,relative viability,NCI-H838; first compound 0.6325 µM,0.988
same,relative viability,NCI-H838; first compound 2 µM,0.554
same,relative viability,NCI-H838; first compound 6.325 µM,0.688
same,relative viability,NCI-H838; first compound 20 µM,0.699
same,relative viability,HOP-62; first compound 0.2 µM,0.927
same,relative viability,HOP-62; first compound 0.6325 µM,0.914
same,relative viability,HOP-62; first compound 2 µM,0.642
same,relative viability,HOP-62; first compound 6.325 µM,0.888
same,relative viability,HOP-62; first compound 20 µM,0.0803
same,relative viability,NCI-H2126; first compound 0.2 µM,1.05
same,relative viability,NCI-H2126; first compound 0.6325 µM,1.05
same,relative viability,NCI-H2126; first compound 2 µM,1.03
same,relative viability,NCI-H2126; first compound 6.325 µM,0.963
same,relative viability,NCI-H2126; first compound 20 µM,0.659
same,relative viability,NCI-H1355; first compound 0.2 µM,1.04
same,relative viability,NCI-H1355; first compound 0.6325 µM,1.16
same,relative viability,NCI-H1355; first compound 2 µM,1
same,relative viability,NCI-H1355; first compound 6.325 µM,0.94
same,relative viability,NCI-H1355; first compound 20 µM,0.516
same,relative viability,NCI-H2347; first compound 0.2 µM,0.584
same,relative viability,NCI-H2347; first compound 0.6325 µM,0.548
same,relative viability,NCI-H2347; first compound 2 µM,0.677
same,relative viability,NCI-H2347; first compound 6.325 µM,0.577
same,relative viability,NCI-H2347; first compound 20 µM,0.4
same,relative viability,SW 1573; first compound 0.2 µM,0.8
same,relative viability,SW 1573; first compound 0.6325 µM,0.847
same,relative viability,SW 1573; first compound 2 µM,0.875
same,relative viability,SW 1573; first compound 6.325 µM,0.661
same,relative viability,SW 1573; first compound 20 µM,0.451
same,relative viability,NCI-H3122; first compound 0.2 µM,0.272
same,relative viability,NCI-H3122; first compound 0.6325 µM,0.251
same,relative viability,NCI-H3122; first compound 2 µM,0.32
same,relative viability,NCI-H3122; first compound 6.325 µM,0.294
same,relative viability,NCI-H3122; first compound 20 µM,0.204
same,relative viability,CAL-12T; first compound 0.2 µM,0.596
same,relative viability,CAL-12T; first compound 0.6325 µM,0.676
same,relative viability,CAL-12T; first compound 2 µM,0.515
same,relative viability,CAL-12T; first compound 6.325 µM,0.438
same,relative viability,CAL-12T; first compound 20 µM,0.283
same,relative viability,NCI-H1651; first compound 0.2 µM,0.921
same,relative viability,NCI-H1651; first compound 0.6325 µM,0.878
same,relative viability,NCI-H1651; first compound 2 µM,0.827
same,relative viability,NCI-H1651; first compound 6.325 µM,0.832
same,relative viability,NCI-H1651; first compound 20 µM,0.584
same,relative viability,NCI-H650; first compound 0.2 µM,0.649
same,relative viability,NCI-H650; first compound 0.6325 µM,0.709
same,relative viability,NCI-H650; first compound 2 µM,0.662
same,relative viability,NCI-H650; first compound 6.325 µM,0.619
same,relative viability,NCI-H650; first compound 20 µM,0.279
same,relative viability,NCI-H1944; first compound 0.2 µM,1.11
same,relative viability,NCI-H1944; first compound 0.6325 µM,1.09
same,relative viability,NCI-H1944; first compound 2 µM,0.754
same,relative viability,NCI-H1944; first compound 6.325 µM,0.811
same,relative viability,NCI-H1944; first compound 20 µM,0.323
same,relative viability,NCI-H322M; first compound 0.2 µM,0.831
same,relative viability,NCI-H322M; first compound 0.6325 µM,1.02
same,relative viability,NCI-H322M; first compound 2 µM,0.762
same,relative viability,NCI-H322M; first compound 6.325 µM,0.808
same,relative viability,NCI-H322M; first compound 20 µM,0.71
same,relative viability,HCC-78; first compound 0.2 µM,0.322
same,relative viability,HCC-78; first compound 0.6325 µM,0.324
same,relative viability,HCC-78; first compound 2 µM,0.309
same,relative viability,HCC-78; first compound 6.325 µM,0.318
same,relative viability,HCC-78; first compound 20 µM,0.735
same,relative viability,LCLC-97TM1; first compound 0.2 µM,0.327
same,relative viability,LCLC-97TM1; first compound 0.6325 µM,0.38
same,relative viability,LCLC-97TM1; first compound 2 µM,0.441
same,relative viability,LCLC-97TM1; first compound 6.325 µM,0.214
same,relative viability,LCLC-97TM1; first compound 20 µM,0.12
same,relative viability,NCI-H441; first compound 0.2 µM,0.835
same,relative viability,NCI-H441; first compound 0.6325 µM,0.692
same,relative viability,NCI-H441; first compound 2 µM,0.774
same,relative viability,NCI-H441; first compound 6.325 µM,0.433
same,relative viability,NCI-H441; first compound 20 µM,0.222
same,relative viability,SK-LU-1; first compound 0.2 µM,1.02
same,relative viability,SK-LU-1; first compound 0.6325 µM,0.895
same,relative viability,SK-LU-1; first compound 2 µM,1.07
same,relative viability,SK-LU-1; first compound 6.325 µM,0.815
same,relative viability,SK-LU-1; first compound 20 µM,0.843
same,relative viability,BEN; first compound 0.2 µM,0.893
same,relative viability,BEN; first compound 0.6325 µM,0.72
same,relative viability,BEN; first compound 2 µM,0.982
same,relative viability,BEN; first compound 6.325 µM,0.801
same,relative viability,BEN; first compound 20 µM,0.317
